Key:
hERG potassium channel [1] = target: T1, hERG potassium channel (Homo sapiens, UniProt Q12809); test: hERG patch clamp assay; assay type: cell-based; conditions: HEK293 cells stably transfected with hERG cDNA, peak tail currents, read-out: % Inhibition (Mean ± SE)
T1 construct: expressed in transfected cells; host or cells: HEK293
Source text: Cell Line. Human embryonic kidney (HEK293) cells stably transfected with human ether-a-go-go related gene (hERG) cDNA were used in the hERG assay. The biophysical and pharmacological properties of recombinant hERG channels expressed in HEK293 cells and of native IKr channels in human cardiac cells are nearly identical. Several known hERG blockers, including dofetilide, terfenadine, cisapride and E-4031 inhibit recombinant hERG currents in the hERG stable cell line and IKr currents in isolated cardiac myocytes with identical potency.
Patch Clamp. […]
Initially, a current-voltage relationship was generated in the control bath solution using the following voltage protocol. hERG currents were elicited by 2 second step depolarizations applied from a holding potential of −80 mV to test potentials ranging from −70 mV to +60 mV. […] The peak tail current was monitored until a new steady-state in the presence of test article was achieved. This was followed by the application of the next higher concentration of test article to be tested, and was repeated until all concentrations of test article had been evaluated. Effects of test article on hERG channel were calculated by measuring inhibition of peak tail currents. Percent inhibition of tail currents was plotted as a function of test article concentration to quantify hERG channel inhibition. […] All currents were recorded at room temperature 25° C.

hERG potassium channel [2] = target: T1, hERG potassium channel; test: hERG Flux assay (FLIPR); assay type: cell-based; conditions: HEK293 cells stably-expressing hERG, thallium flux
Method: Cells are incubated at 21° C. for 45 minutes.
Data Analysis. […] The raw fluorescence units data files generated on the FLIPR plate reader are automatically exported and processed by in-house data analysis tools.

[3] = target: NS5B protein of HCV, genotype 1b (Hepatitis C virus genotype 1b, UniProt Q9WMX2); test: biochemical
Chain of NS5B protein of HCV, genotype 1b (Q9WMX2 2420-2992): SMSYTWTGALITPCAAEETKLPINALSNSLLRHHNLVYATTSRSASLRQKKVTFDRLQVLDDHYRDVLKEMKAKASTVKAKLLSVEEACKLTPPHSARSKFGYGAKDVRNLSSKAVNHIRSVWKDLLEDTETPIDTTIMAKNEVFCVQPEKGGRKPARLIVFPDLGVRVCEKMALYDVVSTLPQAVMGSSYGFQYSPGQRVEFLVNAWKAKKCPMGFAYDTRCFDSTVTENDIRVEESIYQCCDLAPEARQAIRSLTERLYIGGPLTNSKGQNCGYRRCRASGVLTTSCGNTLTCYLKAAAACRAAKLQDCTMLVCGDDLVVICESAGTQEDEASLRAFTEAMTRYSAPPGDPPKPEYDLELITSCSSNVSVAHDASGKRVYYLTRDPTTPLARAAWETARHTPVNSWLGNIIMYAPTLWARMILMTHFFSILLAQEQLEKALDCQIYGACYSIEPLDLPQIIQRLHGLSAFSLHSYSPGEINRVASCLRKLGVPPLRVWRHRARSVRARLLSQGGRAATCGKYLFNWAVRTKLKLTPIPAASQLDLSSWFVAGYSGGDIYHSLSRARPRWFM
Method: The cDNA encoding the NS5B protein of HCV, genotype 1b, was cloned into the pET21a expression vector. The protein was expressed with an 18 amino acid C-terminal truncation to enhance the solubility. The E. coli competent cell line BL21(DE3) was used for expression of the protein. Cultures were grown at 37° C. for ˜4 hours until the cultures reached an optical density of 2.0 at 600 nm. The cultures were cooled to 20° C. and induced with 1 mM IPTG. Fresh ampicillin was added to a final concentration of 50 μg/mL and the cells were grown overnight at 20° C.
The lysis buffer consisted of 20 mM Tris-HCl, pH 7.4, 500 mM NaCl, 0.5% triton X-100, 1 mM DTT, 1 mM EDTA, 20% glycerol, 0.5 mg/mL lysozyme, 10 mM MgCl2, 15 ug/mL deoxyribonuclease I, and Complete TM protease inhibitor tablets (Roche). After addition of the lysis buffer, frozen cell pellets were resuspended using a tissue homogenizer. […]
After incubating for at least 15 minutes, plates were read on an Amersham LEADseeker multimodality imaging system.
IC50 values for compounds were determined using ten different [I]. IC50 values were calculated from the inhibition using the four-parameter logistic formula y=A+((B−A)/(1+((C/x)^D))), where A and B denote minimal and maximal % inhibition, respectively, C is the IC50, D is hill slope and x represents compound concentration.

[4] = test system: genotype 1b HCV replicon in Huh-7 cells; test: HCV Replicon Luciferase Assay; assay type: cell-based; conditions: Hepatitis C virus, Huh-7, 72 h
Method: Cell Lines. The cell lines used to evaluate compounds consist of a human hepatocyte derived cell line (Huh-7) that constitutively expresses a genotype 1b HCV replicon containing a Renilla luciferase reporter gene. These cells were maintained in Dulbecco's modified Eagle medium (DMEM) containing 10% FBS, 100 U/mL penicillin/streptomycin and 1.0 mg/mL G418.
HCV Replicon Luciferase Assay. To evaluate compound efficacy, titrated compounds were transferred to sterile 384-well tissue culture treated plates, and the plates were seeded with HCV replicon cells (50 μL at a density of 2.4×10^3 cells/well) in DMEM containing 4% FBS (final DMSO concentration at 0.5%). After 3 days incubation at 37° C., cells were analyzed for Renilla Luciferase activity using the EnduRen substrate (Promega cat #E6485) according to the manufacturer's directions. Briefly, the EnduRen substrate was diluted in DMEM and then added to the plates to a final concentration of 7.5 μM. The plates were incubated for at least 1 h at 37° C. then read on a Viewlux Imager (PerkinElmer) using a luminescence program. The 50% effective concentration (EC50) was calculated using the four-parameter logistic formula noted above.

T1 sequence (Q12809 whole entry): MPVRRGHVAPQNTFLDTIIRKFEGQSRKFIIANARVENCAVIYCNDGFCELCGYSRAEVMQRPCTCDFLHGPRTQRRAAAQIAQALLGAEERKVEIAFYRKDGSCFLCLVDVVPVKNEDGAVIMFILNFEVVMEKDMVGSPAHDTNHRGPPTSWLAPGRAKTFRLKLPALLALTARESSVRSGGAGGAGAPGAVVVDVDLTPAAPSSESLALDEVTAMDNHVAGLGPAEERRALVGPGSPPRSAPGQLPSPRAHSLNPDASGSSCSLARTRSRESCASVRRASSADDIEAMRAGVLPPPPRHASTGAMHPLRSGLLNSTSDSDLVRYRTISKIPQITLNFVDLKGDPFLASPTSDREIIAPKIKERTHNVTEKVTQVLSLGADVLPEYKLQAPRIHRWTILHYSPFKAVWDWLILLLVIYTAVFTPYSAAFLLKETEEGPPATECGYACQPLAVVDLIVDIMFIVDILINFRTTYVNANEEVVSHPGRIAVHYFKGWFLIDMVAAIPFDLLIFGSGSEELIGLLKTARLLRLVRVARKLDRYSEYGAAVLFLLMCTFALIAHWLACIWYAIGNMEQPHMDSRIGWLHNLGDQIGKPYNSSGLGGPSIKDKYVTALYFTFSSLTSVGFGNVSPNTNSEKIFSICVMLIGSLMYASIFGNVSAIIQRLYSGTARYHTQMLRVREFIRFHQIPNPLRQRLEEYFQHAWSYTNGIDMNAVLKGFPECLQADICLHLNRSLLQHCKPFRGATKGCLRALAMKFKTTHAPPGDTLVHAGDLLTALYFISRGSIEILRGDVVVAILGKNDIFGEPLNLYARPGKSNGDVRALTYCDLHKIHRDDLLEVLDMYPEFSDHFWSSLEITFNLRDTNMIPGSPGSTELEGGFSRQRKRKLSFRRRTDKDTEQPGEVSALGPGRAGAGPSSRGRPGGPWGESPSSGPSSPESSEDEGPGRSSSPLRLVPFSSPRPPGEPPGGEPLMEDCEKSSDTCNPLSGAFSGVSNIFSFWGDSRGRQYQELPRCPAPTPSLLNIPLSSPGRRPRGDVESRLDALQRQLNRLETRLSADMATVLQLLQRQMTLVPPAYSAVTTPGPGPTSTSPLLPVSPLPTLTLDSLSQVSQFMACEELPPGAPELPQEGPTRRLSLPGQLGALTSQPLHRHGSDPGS

CN1CC2CCC(C1)N2C(=O)[C@]12C[C@H]1c1cc(F)ccc1-c1c(C3CCCCC3)c3ccc(C(=O)NS(=O)(=O)C4(C)CC4)cc3n1C2 [Compound I, (1aR,12bS)-8-cyclohexyl-11-fluoro-N-((1-methylcyclopropyl)sulfonyl)-1a-((3-methyl-3,8-diazabicyclo[3.2.1]oct-8-yl)carbonyl)-1,1a,2,12b-tetrahydrocyclopropa[d]indolo[2,1-a][2]benzazepine-5-carboxamide] was tested, and the inhibition at 10 μM (hERG potassium channel [1]; pH 7.4, Conc. 10 μM) was 30.5 ± 1.9%, the inhibition at 30 μM (hERG potassium channel [1]; pH 7.4, Conc. 30 μM) was 43.4 ± 2% and the IC50 (hERG potassium channel [2]) was 23400 nM. The IC50 [3] was 5 nM and the EC50 [4] was 7 nM.

From patent publication US8716275B2, “Compound for the treatment of hepatitis C” (Bristol-Meyers Squibb Company, priority 2011, dated 2014)
